Consider one compound from patent US6472348B1, “Pyridone derivatives and herbicides” (Kumiai Chemical Industry Co., Ltd., priority 1996, dated 2002).

Structures are written as SMILES.

The subject of data set [1] is China jute (Ab). The experiment in a line: Test Example 9: crop plant selectivity by upland field foliage treatment (wheat), herbicidal effects. Details: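 grade of growth control; 5 = at least 90%; 4 = 70 to 90%; 3 = 50 to 70%; 2 = 30 to 50%; 1 = 10 to 30%; 0 = under 10%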. Particulars: dose 1.6 g ai/10a, 14th day after treatment. In kind it is in vivo. The method, boiled down: (§1)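 Seeds of wheat, pale smartweed, slender amaranth, common lambsquarters and China jute are sown in sand and grown 2 weeks under glass. Foliage is then treated, culture resumes in the greenhouse, and damage is graded on the 14th day.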

Data set [2] relates to common lambsquarters (Ch). The data set is described as above. More on the design: scale not given here. Particulars: dose 1.6 g ai/10a, 14th day after treatment. It is filed as in vivo. The method, boiled down:
as §1

Data set [3] deals with pale smartweed (Po). The description is as above. In kind it is in vivo. More on the design: scale not given here. The settings on record: dose 1.6 g ai/10a, 14th day after treatment. The method, boiled down: as §1
Data set [4] relates to slender amaranth (Am). Described as above. In kind it is in vivo. Details: scale not given here. Particulars: dose 1.6 g ai/10a, 14th day after treatment. An outline of the steps: as §1
Data set [5] relates to corn (Ze). The experiment in a line: Test Example 11: crop plant selectivity by upland field foliage treatment (corn), phytotoxicity. Particulars: corn; foliage treatment; dose 1.6 g ai/10a; evaluated on 14th day after treatment; index per Table 47. As for the experimental part: (§2) (Test on Crop Plant Selectivity by Upland Field Foliage Treatment)
(§3) In a plastic pot (surface area: 600 cm^2) filled with sand, corn (Ze), pale smartweed (Po), slender amaranth (Am), common lambsquarters (Ch) and China jute (Ab) were sown and cultured in a green house for 2 weeks. […] The plants were then cultured in a green house, and the evaluation of the herbicidal effects and phytotoxicity was conducted on the 14th day after the treatment in accordance with the standards as identified in Table 47.

The subject of data set [6] is China jute (Ab). The experiment in a line: Test Example 11: crop plant selectivity by upland field foliage treatment (corn), herbicidal effects. It is filed as in vivo. More on the design: scale not given here. The settings on record: China jute; foliage treatment; dose 1.6 g ai/10a; evaluated on 14th day after treatment; index per Table 47. As for the experimental part: as §2, §3

Data set [7] relates to common lambsquarters (Ch). Described as above. Details: scale not given here. In kind it is in vivo. The settings on record: common lambsquarters; foliage treatment; dose 1.6 g ai/10a; evaluated on 14th day after treatment; index per Table 47. As to the method: as §2, §3
Data set [8] deals with pale smartweed (Po). The data set is described as above. It is filed as in vivo. More on the design: scale not given here. Particulars: pale smartweed; foliage treatment; dose 1.6 g ai/10a; evaluated on 14th day after treatment; index per Table 47. As to the method:
as §2, §3

For data set [9], the system named is slender amaranth (Am). The description is as above. In kind it is in vivo. Details: scale not given here. Particulars: slender amaranth; foliage treatment; dose 1.6 g ai/10a; evaluated on 14th day after treatment; index per Table 47. As to the method: as §2, §3
For data set [10], the system named is wheat (Tr). The experiment in a line: Test Example 9: crop plant selectivity by upland field foliage treatment (wheat), phytotoxicity.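 Note: grade of crop injury; 5 = at least 90%; 4 = 70 to 90%; 3 = 50 to 70%; 2 = 30 to 50%; 1 = 10 to 30%; 0 = under 10%.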 The settings on record: dose 1.6 g ai/10a, 14th day after treatment. The method, boiled down: as §1

For `CCC(Br)c1cc2c(-c3ccc(C(F)(F)F)n(C)c3=O)c(F)cc(Cl)c2o1` (stereo not shown) [Compound 4-38], the “Herbicidal effects Ab” value in data set [1] and in [6] was 5 in each case. Further, the “Herbicidal effects Ch” value in data set [2] and in data set [7] was 5 in each case. Moreover, the “Herbicidal effects Po” value in [3] and in data set [8] was 5 in each case. Further, the “Herbicidal effects Am” value in data set [4] and in data set [9] was 5 throughout. Moreover, in data set [5], the “Phytotoxicity Ze” value worked out at 2. Moreover, in [10], the “Phytotoxicity Tr” value came to 2.
